Test [1] is described as follows: Oxidation of TT to TTS by ROS, UV-Vis (339 nm). The test is classed as physicochemical. To be noted: for k2 (TT oxidation rate constant): PBS pH 7.4. The method, then:
TT was treated with H2O2, the most prevalent oxidant in biology. Stock solutions for hydrogen peroxide (H2O2), t-butyl hydroperoxide (^tBuOOH), peracetic acid (AcOOH), and sodium hypochlorite (NaOCl), were prepared in deionized water. H2O2 was diluted from a commercially available solution (30%). The concentration of H2O2 was determined using the absorption at 240 nm (ε=[…]). ^tBuOOH was diluted from commercially available solutions (70%). AcOOH was diluted from commercially available solutions (32%). NaOCl was diluted from commercially available solution containing 11-15% available chlorine. The concentration of HOCl was determined using the absorption at 292 nm (ε=[…]).
TT was dissolved in DMSO to afford a 10 mM stock solution. For H2O2, ^tBuOOH and AcOOH, substrate TT (10 μM) and ROS (1 mM) were mixed in PBS buffer, pH=7.4 with DMSO (1%) under room temperature. For NaClO, TT (100 μM) and NaClO (1 mM) were mixed in PBS buffer, pH=7.4 with DMSO (1%) under room temperature. The rate of production of TTS was detected by UV-Vis spectrum (λ=339 nm) based on the decrease of TT. A pseudo-first order reaction was assumed; the second-order k constant (k2) was calculated using the method described below.
(§1) The transformation from TT to TTS was clean. The progress of the reaction was monitored by UV-Vis spectra and the reaction rate constant (k2) was measured to be […]. The oxidation of TT by several other oxidants including t-BuOOH, AcOOH, and OCl^− was measured and the TT oxidation rate constants k2 are summarized in Table 1. ^aThe rate constant was estimated.

Test [2] can be described thus: NMR monitoring of the oxidation of TT to TTS. The following applies: TT 20 mM in CD3CN/D2O (1:1) with H2O2, room temperature. The test is classed as physicochemical. The method, then:
To an NMR tube, the solution of TT (0.2 mmol, final concentration is 20 mM) in CD3CN/D2O (1:1) was added, followed by adding H2O2 (10 μM, 20 μM). The NMR tube was shacked immediately and incubated at room temperature for 0 min, 30 min, 3 h, and 24 h.
as §1

Test [3] is described as follows: SSP4 fluorescence assay to determine generation of H2S2 in buffer. To be noted: SSP4 5 μM. An excerpt: To further evaluate the specificity of TTS in converting H2S to H2S2, SSP4 was used to monitor the formation of H2S2 in this reaction and the results were compared with a series of controls. Details of the SSP4 experiments are provided later herein. SSP4 is a well-established fluorescent sensor for sulfane sulfurs including H2S2. See Shieh, M. et al., Shining a light on SSP4: a comprehensive analysis and biological applications for the detection of sulfane sulfurs. Redox Biol. 2022, 56, 102433. […] Without wishing to be bound by scientific theory, it is believed that thiols would compete with SSP4 to react with H2S2, thereby causing decreased signals.
SSP4 was dissolved in DMSO to obtain a 200 μM stock solution. CTAB was dissolved in ethanol to yield a 2 mM stock solution. TTS and TT were dissolved in DMSO to make 1 mM stock solutions. Na2S, Na2S2, and L-cysteine were prepared in MilliQ H2O to obtain stock solutions at 2 mM, 1 mM, and 4 mM, respectively. 50 mM PBS buffer was added to individual wells of a black polystyrene, flat-bottomed clear 96-well plate, followed by TTS (25 μM) or TT (25 μM), and Na2S (50 μM), cysteine (100 μM), or Na2S2 (25 μM). For the interference assay, TTS or TT (25 μM) were added to wells with or without Na2S (50 μM). Samples were mixed by pipetting up and down and incubated in the dark at room temperature (rt) for 30 min. Next, CTAB (50 μM) was added to all wells followed by SSP4 (5 μM), and samples were mixed by pipetting up and down. The final volume was 200 μL in each well. Samples were then incubated in the dark at room temperature for another 30 min before being measured on a Molecular Devices SpectraMax iD3 Multi-Mode Microplate Reader (emission 525 nm; excitation 485 nm; integration time […], low PMT sensitivity, attenuation 1, read height 1.00 mm).

Another test has as its system HeLa cells. As to the kind of experiment: Live cell imaging of H2S2 formation with SSP4. The test is classed as cell-based. The following applies: 30 min. The method, then: HeLa cells were seeded at ~7000 cells/well in a 96-well clear flat-bottomed BioLite plate (ThermoFisher Scientific, #130188) in DMEM/F12 (1:1) (Gibco, Invitrogen, #11330-032) medium supplemented with 10% fetal bovine serum (FBS) at 37° C., 5% CO2 overnight.
Preparation before cell treatment: Na2S and Na2S2 stocks were prepared at 10 mM in sterile 1×PBS. TTS and TT were prepared at 10 mM concentrations in DMSO. They were then diluted to 50 μM concentrations in serum-free Fluorobrite DMEM in individual Eppendorf tubes (0.5% DMSO). Na2S (final concentration=100 μM) was added to the Eppendorf tube containing Fluorobrite DMEM and TTS or TT immediately before being added to the cells. Compounds were mixed by pipetting up and down prior to cell addition.
Cell treatment: Culturing media was aspirated from all wells, and cells were washed twice with 1×PBS. Compounds were added to cells (200 μL/well) and incubated for 30 min at 37° C., 5% CO2. While cells were incubating, SSP4 treatment was prepared by first adding 5 mM CTAB in ethanol to Fluorobrite DMEM followed by 6.125 mM SSP4 in DMSO to final concentrations of 100 μM and 5 μM, respectively, in a tube. The final volume was 5 mL (0.08% DMSO). Compounds were mixed by pipetting up and down prior to cell addition. After incubation, media was aspirated, and cells were washed twice with 1×PBS. SSP4 treatment was added to all wells (100 μL/well), and cells were incubated for 30 min at 37° C., 5% CO2 for 30 min. Media was then aspirated, and cells were washed three times with 1×PBS. Fluorobrite DMEM was added to all wells before imaging on the Keyence All-in-One Fluorescence Microscope (BZ-X810) (excitation: 470/40 nm; emission: 525/50 nm).
As shown in FIGS. 4(A)-(D), HeLa cells were treated with TTS, TTS+H2S, or TT for 30 min before the fluorescent sensor SSP4 was applied to the cells to monitor the formation of H2S2. […] Na2S2 was used as the positive control in this study (FIG. 4D). Other control studies including TT+H2S, H2S only, and SSP4 only were also performed. […] FIG. 4H is a graph of fluorescence intensities of SSP4 staining. Data are mean values ±SEM calculated using ImageJ. (n=9, where three different images were obtained from each of three samples and quantified).

Bounds are passed on as bounds.

Consider `COC(=O)c1ccc(=S)sc1` [TT, methyl 2-thioxo-2H-thiopyran-5-carboxylate], for which the “k2 (TT oxidation rate constant)” value in test [1] (ROS AcOOH 1 mM, TT 10 μM) is 13.9 M⁻¹ s⁻¹; in test [1] (ROS H2O2 1 mM, TT 10 μM), 0.1 M⁻¹ s⁻¹; in test [1] (ROS OCl^− (NaClO 1 mM), TT 100 μM, rate constant was estimated) it was >1.0 × 10^3 M^−1 s^−1 a; in test [1] (ROS ^tBuOOH 1 mM, TT 10 μM), 0.01 M⁻¹ s⁻¹. The same compound gave a reaction rate constant (k2) of TT oxidation by H2O2 in test [1] (UV-Vis, TT 10 μM, H2O2 1 mM, PBS pH 7.4, room temperature) of 0.1 M⁻¹ s⁻¹. Moreover, in test [2], the “time to completion of TT to TTS oxidation (NMR)” value stood at 24 h. The “SSP4 fluorescence response (H2S2 formation)” value in test [3] (25 μM compound + 50 μM Na2S (H2S), PBS) is reported as “No fluorescence”; in test [3] (25 μM compound only), “No fluorescence”. Moreover, the “SSP4 fluorescence response (sulfane sulfur formation)” value in test [3] (25 μM compound + 100 μM Cys) is recorded as “No fluorescence”. In addition, the “SSP4 fluorescence in HeLa cells” value with HeLa cells (compound 50 μM + Na2S 100 μM) was “Obvious fluorescence in these samples was not observed”; in the test with HeLa cells (compound only), “did not show obvious fluorescence”.

Source of the values: patent US20260265055A1, “Sulfine-Based Compounds for Generating Hydrogen Persulfide” (Brown University, priority 2023, published 2026).
